Data from patent publication US20070244111A1, “Pyrazolopyrimidines” (priority 2003, published 2007).
Like-named read-outs stand apart in the source and are kept apart here.

Experiment: log P determination by HPLC (EEC Directive 79/831 Annex V. A8)
Assay type: physicochemical
Settings: HPLC gradient method
Experimental: The log P values were determined in accordance with EEC Directive 79/831 Annex V. A8 by HPLC (gradient method, acetonitrile/0.1% aqueous phosphoric acid).

[1] = gradient of acetonitrile/0.1% aqueous phosphoric acid, acetonitrile/0.1% aqueous phosphoric acid (pH 2.3), read-out: HPLC: log P

Row | SMILES | chromatographic logP [1] | also measured
1 | C=Cc1cnn2c(N3CCC(C)CC3)c(-c3ccc(F)cc3Cl)c(Cl)nc12 [Example 1, 3-vinyl-5-chloro-6-(2-chloro-4-fluorophenyl)-7-(4-methylpiperidino)pyrazolo[1 ,5a]pyrimidine] | 6.07 | –
2 | C#Cc1cnn2c(N3CCC(C)CC3)c(-c3ccc(F)cc3Cl)c(Cl)nc12 [Example 9] | 5.31 | –
3 | CC(C)/C=C/c1cnn2c(N3CCC(C)CC3)c(-c3ccc(F)cc3Cl)c(Cl)nc12 [Example 10] | 7.21 | –
4 | CC(Nc1c(-c2ccccc2Cl)c(Cl)nc2c(/C(Cl)=C/C=O)cnn12)C(C)(C)C (centres unmarked) [Example 29] | – | chromatographic logP (acetonitrile/0.1% aqueous phosphoric acid (pH 2.3), read-out: HPLC: log P): 5.98
5 | N#Cc1cnn2c(N3CCOCC3)c(-c3ccc(F)cc3Cl)c(Cl)nc12 [Example 141] | 3.33 | –
6 | CC1CCN(c2c(-c3ccc(F)cc3Cl)c(Cl)nc3c(C=O)cnn23)CC1 [Example 142, 3-formyl-5-chloro-6-(2-chloro-4-fluorophenyl)-7-(4-methylpiperidino)pyrazolo[1,5-a]pyrimidine] | – | chromatographic logP (gradient of acetonitrile/0.1% aqueous phosphoric acid, pH 2.3, heading: HPLC: log P): 4.53
7 | O=Cc1cnn2c(N3CCOCC3)c(-c3ccc(F)cc3Cl)c(Cl)nc12 [Example 143] | 2.94 | –
8 | N#Cc1cnn2c(Cl)c(-c3ccc(F)cc3Cl)c(Cl)nc12 [Example 145, 3-cyano-5,7-dichloro-6-(2-chloro-4-fluorophenyl)pyrazolo[1 ,5-a]pyrimidine] | 3.48 | –
